Data published in PubChem BioAssay (NCI).
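Compound exposure: 48 hours, 5 concentrations, 96-well plates. At the GI50, growth is halved. TGI: concentration producing complete growth inhibition.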

Tests used:
Experiment in all cases: NCI anticancer screen, dose series, 48 h
[1] = test system: DU-145 prostate
[2] = test system: OVCAR-5 ovarian
[3] = test system: SF-295 CNS
[4] = test system: PC-3 prostate
[5] = test system: T-47D breast
[6] = test system: EKVX NSCLC
[7] = test system: SK-MEL-2 melanoma
[8] = test system: K-562 leukemia

Compound | GI50 [1] | TGI [1] | GI50 [2] | TGI [2] | GI50 [3] | TGI [3] | GI50 [4] | TGI [4] | GI50 [5] | TGI [5] | GI50 [6] | TGI [6] | GI50 [7] | TGI [7] | GI50 [8] | TGI [8]
CCCCCCCCN(CCCCCCCC)CC(O)c1cc(-c2ccccc2)nc2ccc(OC)cc12 (stereo unspecified) | 37 µM | > 100 µM | > 100 µM | > 100 µM | > 100 µM | > 100 µM | 47.7 µM | > 100 µM | 25.6 µM | > 100 µM | > 100 µM | > 100 µM | 50.3 µM | > 100 µM |  | 
O=C1/C=C/[C@@H](O)[C@@H]2C[C@@H](O)C[C@H]2/C=C/CCC[C@H](CCO)O1 | 0.426 µM | > 100 µM | 0.396 µM | > 100 µM | 0.29 µM | > 100 µM | 0.367 µM | > 100 µM | 0.239 µM | 0.804 µM | 0.253 µM | > 100 µM | 0.244 µM | 0.734 µM | 0.365 µM | > 100 µM
C[C@]12CC[C@H]3[C@@H](CC[C@]4(O)C[C@@H](O)CC[C@]34C=O)[C@@]1(O)CC[C@@H]2C1=CC(=O)OC1 |  | 0.863 µM |  | 3.57 µM |  | 1.74 µM |  | 4.56 µM |  | 5.03 µM |  | 1.3 µM |  | 2.86 µM |  | > 100 µM
Nc1ccc(C#Cc2ccccc2C#CCCCCO)cc1 | 18.4 µM | 35.1 µM | 16.4 µM | 31.3 µM | 22.3 µM | 41.1 µM | 15.6 µM | 28.9 µM | 15.4 µM | 30.7 µM | 18.9 µM | 37.8 µM | 18.8 µM | 37.1 µM | 19.7 µM | 40.8 µM
Cc1cc(I)cc(CN(C)CCCN2CCC(C)CC2)c1O | 15.5 µM | 28.8 µM | 15.6 µM | 34.4 µM | 14.5 µM | 29.3 µM | 14.1 µM | 29.7 µM | 15.8 µM | 40.7 µM | 14.2 µM | 31 µM | 17.4 µM | 33.9 µM | 10.9 µM | 35.7 µM
CC(C)[C@@H](C(=O)O[C@@H]1/C=C/C(=O)O[C@@H](C)CCC/C=C/[C@@H]2C[C@H](O)C[C@H]21)N(C)C | 29.4 µM | > 100 µM | 35.9 µM | > 100 µM | 6 µM | 24.9 µM | 6.77 µM | 61.6 µM | 30 µM | > 100 µM | 12.5 µM | 64.9 µM | 23.1 µM | > 68.3 µM | 20.3 µM | 50.7 µM
COC(=O)C1=C(C)NC(=S)NC1c1ccc(N(CCCl)CCCl)cc1Cl (stereo unspecified) |  | > 81.1 µM |  | > 100 µM |  | > 82.4 µM |  | > 82.8 µM |  | > 55.4 µM |  | > 37.8 µM |  | > 85.9 µM |  | > 57.5 µM
CCC(=O)NC1=C(Cl)C(=O)C(NC(=O)CC)=C(Cl)C1=O | 9.49 µM | 22.3 µM | 20.6 µM | 40.5 µM | > 39.2 µM | > 53.8 µM | 8.5 µM | 21 µM | 5.51 µM | 14.2 µM | 18.1 µM | 33.1 µM | 20.6 µM | 39.5 µM | 11.8 µM | > 27.9 µM
CN1C(=O)N(C)C2C1NC(=S)N2/N=C/C=C/c1ccccc1[N+](=O)[O-] (stereo unspecified) | 3.81 µM | > 100 µM | 3.88 µM | > 100 µM | 0.625 µM | > 100 µM | 0.967 µM | > 100 µM | > 100 µM | > 100 µM | 3.86 µM | > 100 µM | 0.587 µM | > 100 µM |  | 
CCCCCCC(=O)NC1=C(N2CC2)C(=O)C(NC(=O)CCCCCC)=C(N2CC2)C1=O | 1.13 µM | > 100 µM | > 100 µM | > 100 µM | 0.444 µM | 34 µM | 1.61 µM | > 100 µM | 3.45 µM | > 100 µM |  |  | 2.52 µM | 6.14 µM |  | 
O=[N+]([O-])c1ccc2c(c1)C(N1CCN(CCO)CC1)Cc1ccc(F)cc1S2 (stereo unspecified) |  | 29 µM |  | 26.9 µM |  | 14.1 µM |  | 15.4 µM |  | 37.6 µM |  | 24.1 µM |  |  |  | 12.6 µM
O=C(Nc1ccc(Br)c2ccccc12)c1ccc2ccccc2c1O |  | 85.4 µM |  | 12.7 µM |  | 8.65 µM |  | 6.21 µM |  | 14.5 µM |  | > 100 µM |  | 3 µM |  | > 100 µM
CC1Cc2c(Cl)ncnc2N(C)c2ccccc21 (stereo unspecified) | 4.45 µM | > 100 µM | 6.02 µM | > 100 µM | 3.28 µM | 37.4 µM | 3.9 µM | 66.9 µM | 4.29 µM | 37.4 µM | 3.13 µM | > 100 µM | 2.61 µM | 6.1 µM | 4.44 µM | > 100 µM
CC1=CC2(C)/C=C(C)/C=C\CC(O)/C=C3/C=CC(=C4C(=O)OC2(CC1C)C4=O)OC3 (stereo unspecified) | 1.81 µM | 3.59 µM | 2.93 µM | 10.1 µM | 8.31 µM | 32 µM | 1.45 µM | 7.89 µM | 1.63 µM | 6.52 µM | 3.09 µM | > 31.7 µM | 2.61 µM | 6.51 µM | 1.2 µM | > 100 µM
O=C(Nc1cccc([N+](=O)[O-])c1)c1cccc(C(=O)Nc2cccc([N+](=O)[O-])c2)c1 | > 84.2 µM | > 100 µM | > 100 µM | > 100 µM | 23.2 µM | > 90.4 µM | > 100 µM | > 100 µM | 56.9 µM | > 100 µM | > 59.9 µM | > 100 µM |  |  | > 100 µM | > 100 µM
O=C(Nc1nc2c(C(F)(F)F)cccc2s1)c1cc(Cl)ccc1O | 0.466 µM | > 100 µM | 0.317 µM | 25.7 µM | 0.232 µM | 0.707 µM | 0.302 µM | 30.3 µM | 0.245 µM | 0.783 µM | 0.25 µM | 5.75 µM |  |  | 0.327 µM | > 100 µM
